# Source: patent US20250073249A1, “STEROID COMPOUND, AND PREPARATION METHOD THEREFOR AND USE THEREOF” (SHANGHAI INSTITUTE OF MATERIA MEDICA, CHINESE ACADEMY OF …, priority 2022, published 2025)
# Residue numbers refer to the chain shown, from its start.
# What was measured:
# [1] = test system: 22RV1 prostate cancer cells; test: Anti-proliferative activity against resistant 22RV1 cells expressing AR-V7; format: cell-based; conditions: for Activity against tumor cells expressing AR splice variants: 22RV1 cells, in words; for IC50: Homo sapiens, 22RV1 cells expressing AR-V7 splice variant, read-out: Antiproliferative activity IC50
# Description: (§1) The cells were then digested with trypsin and counted using an automated cell counter to determine cell density. The cell suspension was diluted to the desired density in growth medium. Subsequently, 100 μL of the cell suspension was seeded into 96-well plates and incubated at 37° C. with 5% CO2 for 24 hours. 10 μL of drug solution (including 3-fold serial dilutions of compounds or DMSO) was added to each well, and the plates were incubated at 37° C. with 5% CO2 for 6 days. Prior to measurement, the assay plates were equilibrated to room temperature. 40 μL of CellTiter-Glo® reagent was added to each well. The plates were mixed on an orbital shaker for 2 minutes to induce cell lysis. After incubation at room temperature for 60 minutes to stabilize the luminescence signal, the plates were read on an Envision plate reader.
# The experimental procedure was essentially the same as that for LNCaP cells.
# wild-type AR = biological target: T1, wild-type AR (Homo sapiens, UniProt P10275); test: Wild-type AR antagonist activity test (luciferase reporter in HEK293 cells); format: cell-based; conditions: for IC50: HEK293 cells, luciferase expression, DHT 1.5 nM, 24 hours; for AR antagonist activity, times higher than that of the control enzalutamide: ratio to enzalutamide IC50
# T1 construct: expressed in transfected cells; host or cells: HEK293
# T1 sequence (P10275 1-920): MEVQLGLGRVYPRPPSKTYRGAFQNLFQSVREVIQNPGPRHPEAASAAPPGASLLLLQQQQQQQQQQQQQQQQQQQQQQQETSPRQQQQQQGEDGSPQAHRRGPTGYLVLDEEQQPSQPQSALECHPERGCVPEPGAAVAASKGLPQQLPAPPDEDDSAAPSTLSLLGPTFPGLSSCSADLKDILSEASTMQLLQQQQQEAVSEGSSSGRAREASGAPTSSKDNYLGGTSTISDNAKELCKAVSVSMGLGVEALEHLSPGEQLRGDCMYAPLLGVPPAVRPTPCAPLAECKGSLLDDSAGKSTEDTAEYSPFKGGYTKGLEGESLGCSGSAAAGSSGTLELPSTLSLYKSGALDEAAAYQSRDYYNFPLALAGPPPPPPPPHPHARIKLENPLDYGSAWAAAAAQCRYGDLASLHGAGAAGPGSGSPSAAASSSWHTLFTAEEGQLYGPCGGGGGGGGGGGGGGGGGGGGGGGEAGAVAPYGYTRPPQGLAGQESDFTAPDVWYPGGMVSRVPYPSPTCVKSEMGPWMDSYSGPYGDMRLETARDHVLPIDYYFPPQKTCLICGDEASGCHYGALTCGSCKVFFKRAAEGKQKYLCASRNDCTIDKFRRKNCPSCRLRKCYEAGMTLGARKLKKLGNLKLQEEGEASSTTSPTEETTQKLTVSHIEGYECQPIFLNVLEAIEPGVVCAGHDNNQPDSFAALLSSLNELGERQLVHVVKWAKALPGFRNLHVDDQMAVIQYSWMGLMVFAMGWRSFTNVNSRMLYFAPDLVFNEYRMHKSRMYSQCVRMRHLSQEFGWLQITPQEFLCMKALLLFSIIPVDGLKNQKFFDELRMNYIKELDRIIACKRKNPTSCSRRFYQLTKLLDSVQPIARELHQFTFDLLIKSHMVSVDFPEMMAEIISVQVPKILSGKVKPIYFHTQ
# Description: HEK293 cells were cultured in DMEM containing 10% fetal bovine serum (FBS) at 37° C. with 5% CO2. The cells were then digested with trypsin and counted. A 10 μL/well transfection solution was prepared in opti-MEM containing 5 ng androgen receptor clone, 100 ng pGL4.36 vector, and 315 nL fugene. […] The diluted cell suspension was seeded into 96-well plates at 90 μL (40,000 cells/well), and the plates were incubated for 24 hours. Then, 10 μL of drug solution (including gradient diluted compounds or DMSO) was added, and the plates were incubated for 30 minutes. […] After 24 hours of incubation, 100 μL of Steady-Glo was added to each well of the plate, the plate was shaken at room temperature for 20 minutes, and read on an Envision.
# AR = biological target: T2, AR (Homo sapiens, UniProt P10275, T878A); test: In vitro AR degradation activity test in LNCaP cells (ELISA, OD450); format: cell-based; conditions: LNCaP cells, 24 hours
# T2 construct: endogenous in cells; host or cells: LNCaP
# T2 sequence (P10275 1-920 T878A): T1 sequence (P10275 1-920) with T878A
# Description: The cells were then digested with trypsin and counted using an automated cell counter. The cell suspension was diluted to the desired density in growth medium. The cell suspension was then seeded into 96-well plates at 100 μL per well, and the plates were incubated at 37° C. with 5% CO2 for 24 hours. The compounds were then diluted 200-fold to the final concentration with DMSO or 3-fold to the final concentration with culture medium. 50 μL of compound solution was transferred to the 96-well plate and incubated at 37° C. for 24 hours. After 24 hours of incubation, the cell plate was washed 3 times with DPBS, 100 μL of 1× lysis buffer was added to each well, and placed on ice for 30 minutes. The supernatant was collected. The protein in the cell lysate samples was quantified and then diluted to the required concentration. 100 μL of cell lysate sample was added to the appropriate wells, sealed with tape and pressed firmly on top of the wells, and the plate was incubated at 37° C. for 2 hours. The plate contents were then discarded, and washed 4 times with 1× wash buffer, 200 μL per well each time. 100 μL of reconstituted detection antibody was then added, the plate was sealed with tape and incubated at 37° C. for 1 hour. The aspiration/wash step was then repeated, 100 μL of reconstituted HRP-Linked secondary antibody was added to each well, the plate was sealed with tape and incubated at 37° C. for 30 minutes. The aspiration/wash step was then repeated, 100 μL of substrate solution was added to each well and incubated at 37° C. for 10 minutes, and finally 100 μL of stop solution was added to each well. The plate was gently tapped to ensure thorough mixing, and the OD450 nm was recorded.
# Degradation rate (%)=(OD450_max−OD450_sample)/(OD450_max−OD450_min)×100,plotted using GraphPad Prism 5 software, and IC50 is calculated using SPSS software.
# LNCaP cells = test: In vitro LNCaP cell proliferation inhibition test (CellTiter-Glo); format: cell-based; conditions: for Maximum Inhibition (%) / IC50: 6 days; for IC50: Homo sapiens, read-out: Anti-proliferative activity IC50
# Description: as §1
# [2] = In vivo pharmacokinetics in rats after oral gavage; conditions: male SD rats, PO 10 mg/kg; for AUC(0-inf) / AUC(0-t) / half-life / Cmax / tmax: rat, plasma; for Cmax: read-out: Cmax; for tmax: read-out: tmax
# Description: Male SD rats were randomly divided into 6 groups, 3 rats per group. The rats were fasted but not water-deprived for 12-14 h one day before dosing. The test samples were then dissolved in a solvent of 5% DMSO+30% PEG400+65% (0.5% MC) and administered by gavage at 10 mg/kg. Food was provided 4 h after dosing. Blood samples (0.10 mL) were collected via the orbital sinus at 0, 15, 30 min, 1, 2, 4, 6, 8, and 24 h, with EDTA-K2 as anticoagulant. Blood samples were placed on ice after collection and centrifuged to separate plasma within 30 minutes (centrifugation conditions: 5000 rpm, 10 minutes, 4° C.). 50.0 μL of plasma sample (taken from −80° C. freezer, thawed naturally at room temperature and vortexed for 30 seconds) was added to a 1.5 mL centrifuge tube, followed by addition of 500 μL internal standard solution (methanol (TEDIA, HPLC grade), acetonitrile (TEDIA, HPLC grade), formic acid (FA, ACROS ORGANICS, HPLC grade), water was laboratory-made ultrapure water (100.0 ng·mL−1)). The mixture was vortexed for 60 seconds and centrifuged for 3 minutes (centrifugal force 12000 rpm). 100 μL of the supernatant was transferred to a 96-well injection plate containing an equal volume of water, mixed by shaking, and analyzed by LC-MS/MS with an injection volume of 10 μL. The data acquisition and control system software was Analyst 1.5.1 software (Applied Biosystem). The chromatographic sample peaks were integrated automatically. The ratio of sample peak area to internal standard peak area was used as an indicator for regression with sample concentration.
# The pharmacokinetic parameters of representative compounds of the present invention were tested in male SD rats after oral gavage administration at 10 mg/kg according to the above conventional method to examine the pharmacokinetic characteristics of the compounds of the present invention in rats.
# TMPRSS2 = TMPRSS2 mRNA expression in A549 cells (qPCR); format: cell-based; conditions: 10 μM, 1 nM DHT, 48 h, Blank = 1
# ACE2 = ACE2 mRNA expression in A549 cells (qPCR); format: cell-based; conditions: 10 μM, 1 nM DHT, 48 h, Blank = 1
smiles,measurement,setting,value
"CNC(=O)c1ccc(N2C(=S)N(c3cnc(C#N)c(C(F)(F)F)c3)C(=O)C23CCC3)cc1F [Apalutamide, apalutamide]",Activity against tumor cells expressing AR splice variants,[1],no activity
same,IC50,[1],> 10 µM
Cc1cn(C2=CCC3C4CC=C5C[C@@H](NC(=O)c6ccnnc6)CC[C@]5(C)C4CC[C@]23C)cn1 (some centres unmarked) [Compound 13],IC50,wild-type AR,0.244 µM
same,"AR antagonist activity, times higher than that of the control enzalutamide",wild-type AR,1.8 times
same,DC50,AR,2.08 µM
same,Maximum Inhibition (%),LNCaP cells,96.97%
same,IC50,LNCaP cells,0.466 µM
same,Anti-tumor activity and efficacy compared to enzalutamide,LNCaP cells; in words,comparable anti-tumor activity but significantly superior anti-tumor efficacy compared to enzalutamide
C[C@]12CC[C@H](NC(=O)c3ccnnc3)CC1=CCC1C2CC[C@]2(C)C(n3ccnc3)=CCC12 (some centres unmarked) [Compound 16],DC50,AR,2.76 µM
same,Maximum Inhibition (%),LNCaP cells,92.41%
same,IC50,LNCaP cells,0.383 µM
same,Kel,[2],0.296 h⁻¹
same,MRTPO,[2],6.25 h
same,AUC(0-inf),[2],37500 ng·h/mL
same,AUC(0-t),[2],37400 ng·h/mL
same,half-life,[2],2.36 h
same,Cmax,[2],3240 ng/mL
same,tmax,[2],4 h
"C[C@]12CC[C@H](NC(=O)c3ccncc3)CC1=CCC1C2CC[C@]2(C)C(n3ccnc3)=CCC12 (stereo partly drawn) [Compound 17, N-((3S,10R,13S)-17-(1H-imidazol-1-yl)-10,13-dimethyl-2,3,4,7,8,9,10,11,12,13,14,15-dodecahydro-1H-cyclopenta[a]phenanthren-3-yl)isonicotinamide]",DC50,AR,1.98 µM
same,Maximum Inhibition (%),LNCaP cells,96.99%
same,IC50,LNCaP cells,0.317 µM
same,"Anti-proliferative activity, fold improvement compared to abiraterone",LNCaP cells; ratio to abiraterone IC50,8.8 fold
same,Kel,[2],0.112 h⁻¹
same,MRTPO,[2],15.5 h
same,AUC(0-inf),[2],65600 ng·h/mL
same,AUC(0-t),[2],28800 ng·h/mL
same,half-life,[2],10 h
same,Cmax,[2],4500 ng/mL
same,tmax,[2],2 h
"Cc1cn(C2=CCC3C4CC=C5C[C@@H](NC(=O)c6ccc([N+](=O)[O-])cc6)CC[C@]5(C)C4CC[C@]23C)cn1 (stereo partly drawn) [Compound 34, N-((3S,10R,13S)-17-(4-methyl-1H-imidazol-1-yl)-10,13-dimethyl-2,3,4,7,8,9,10,11,12,13,14,15-dodecahydro-1H-cyclopenta[a]phenanthren-3-yl)-4-nitrobenzamide]",IC50,wild-type AR,0.0706 µM
same,"AR antagonist activity, times higher than that of the control enzalutamide",wild-type AR,6.2 times
same,DC50,AR,2.6 µM
"CC(O)c1cc(C(=O)N[C@@H](C)Cn2ccc(-c3ccc(C#N)c(Cl)c3)n2)[nH]n1 (some centres unmarked) [Darolutamide, darolutamide]",Activity against tumor cells expressing AR splice variants,[1],no activity
same,IC50,[1],> 10 µM
"CNC(=O)c1ccc(N2C(=S)N(c3ccc(C#N)c(C(F)(F)F)c3)C(=O)C2(C)C)cc1F [Enzalutamide, enzalutamide, reference compound]",Maximum Inhibition (%),LNCaP cells,55.16%
same,Activity against tumor cells expressing AR splice variants,[1],no activity
"CC1(C)C(=O)N(c2ccc(C#N)c(C(F)(F)F)c2F)C(=S)N1c1ccc(CCCc2ncco2)nc1 [Proxalutamide, proxalutamide, reference compound]",TMPRSS2 mRNA level,TMPRSS2,0.608
same,ACE2 mRNA level,ACE2,0.463
